Laboratory results published in patent publication US11690854B2, “Methods of treating heavy menstrual bleeding” (priority 2018, dated 2023).

How the values were obtained:
[1] = tested on: premenopausal women with endometriosis with associated pain; assay: Phase 3 Studies EM-I and EM-II together, with extension studies; format: in vivo, human; details: for Patients who discontinued therapy due to adverse reactions: EM-I and EM-II; for Patients with Z-score below the normal lower bound of −2.0: following 12 months of treatment; for Patients with asymptomatic elevations of serum ALT to at least 3-times the upper limit of the reference range: placebo 1/696, 0.1%
Source text: Each placebo-controlled study assessed the reduction in endometriosis-associated pain over 6 months of treatment. More than 75 percent of women who completed Study EM-I and EM-II enrolled in the extension studies for an additional 6 month treatment period. Subjects were followed for up to 12 months post-treatment. Women in these studies also provided a daily self-assessment of their endometriosis pain using the Numeric Rating Scale (NRS), on a scale ranging from 0 (no pain) to 10 (worst pain ever). […] The population age range was 18-49 years old. Women who completed six months of treatment and met eligibility criteria continued treatment in two blinded six-month extension studies, for a total treatment duration of up to 12 months. In the placebo-controlled and extension clinical studies, BMD was measured by DXA. Changes observed in BMD at other anatomical sites (femoral neck, total hip) were generally smaller than lumbar spine.

[2] = tested on: women with moderate to severe endometriosis-related pain; assay: PROMIS Fatigue SF-6a in Phase III study of endometriosis pain; format: in vivo, human
Experimental: A Phase III study was conducted to assess the effects of elagolix for clinically meaningful reductions in pain and other symptoms. Data provided examined the impact of elagolix on fatigue in women with moderate to severe endometriosis-related pain. […] Fatigue was assessed using the Patient Reported Outcome Measurement Information System (PROMIS®), Fatigue Short Form (SF) 6a. Six items assessed a range of self-reported symptoms from mild, subjective feelings of tiredness to overwhelming, sustained sense of exhaustion that likely decreases one's ability to execute daily activities and function normally. The domain was divided into the experience of fatigue (frequency, duration and intensity) and impact of fatigue on physical, mental and social activities. All items assessed fatigue over the previous seven days. […] Lower scores indicated less fatigue. Post-hoc, Fatigue SF-6a raw scores were converted to T-scores. The T-score rescales […] the raw score into a standardized score such that the general population has a mean of 50 and a standard deviation (SD) of 10. Analysis: […] ANCOVA controlled for treatment as main effect. Baseline Fatigue SF-6a T-score included as a covariate.

COc1cccc(-c2c(C)n(Cc3c(F)cccc3C(F)(F)F)c(=O)n(C[C@H](NCCCC(=O)O)c3ccccc3)c2=O)c1F [Elagolix, 4-((R)-2-[5-(2-fluoro-3-methoxy-phenyl)-3-(2-fluoro-6-trifluoromethyl-benzyl)-4-methyl-2,6-dioxo-3,6-dihydro-2H-pyrimidin-1-yl]-1-phenyl-ethylamino)-butyric acid]
Patients who discontinued therapy due to adverse reactions ([1]; 150 mg QD): 5.5%
% Subjects with lumbar spine Z-score ≤−1.5 ([1]; 150 mg QD, on treatment Month 6, N 360): 0.8%
Mean Percent Change from baseline in lumbar spine bone mineral density ([1]; 150 mg QD, on treatment Month 6, N 360, 95% CI −0.79, −0.26): −0.52%
% Subjects with lumbar spine Z-score ≤−1.5 ([1]; 150 mg QD, on treatment Month 12, N 235): 1.3%
Mean Percent Change from baseline in lumbar spine bone mineral density ([1]; 150 mg QD, on treatment Month 12, N 235, 95% CI −1.29, −0.45): −0.87%
Estradiol level (suppression to) ([1]; 150 mg QD, partial suppression): approximately 50 pg/mL
Patients with Z-score below the normal lower bound of −2.0 ([1]; 150 mg daily dose): no patient
Patients with asymptomatic elevations of serum ALT to at least 3-times the upper limit of the reference range ([1]; 150 mg once daily, 1/450): 0.2%
Incidence of amenorrhea (no bleeding or spotting in a 56-day interval) ([1]; 150 mg once daily, first six months of treatment, placebo less than 1%): 6-17%
Incidence of amenorrhea (no bleeding or spotting in a 56-day interval) ([1]; 150 mg once daily, second 6 months of treatment): 11-15%
Discontinuations due to hot flush ([1]; 200 mg BID): 2.5%
Discontinuations due to nausea ([1]; 200 mg BID): 1.5%
Percentage of patients with adverse reaction: Anxiety ([1]; 200 mg BID, N = 477, placebo 3): 5%
Percentage of patients with adverse reaction: Arthralgia ([1]; 200 mg BID, N = 477, placebo 3): 5%
Percentage of patients with adverse reaction: Insomnia ([1]; 200 mg BID, N = 477, placebo 3): 9%
Percentage of patients with adverse reaction: Nasopharyngitis ([1]; 200 mg BID, N = 477, placebo 4): 6%
Percentage of patients with adverse reaction: Sinusitis ([1]; 200 mg BID, N = 477, placebo 4): 6%
Percentage of patients with adverse reaction: Upper Respiratory Tract Infection ([1]; 200 mg BID, N = 477, placebo 5): 4%
Percentage of patients with adverse reaction: Hot Flush ([1]; 200 mg BID, N = 477, placebo 9): 45%
Percentage of patients with adverse reaction: Headache ([1]; 200 mg BID, N = 477, placebo 12): 20%
Percentage of patients with adverse reaction: Nausea ([1]; 200 mg BID, N = 477, placebo 13): 16%
Percentage of patients with adverse reaction: Amenorrhoea ([1]; 200 mg BID, N = 477, placebo <1): 7%
Mean increase from pretreatment baseline in HDL-C ([1]; 200 mg BID, 6-month treatment): 4.16 mg/dL
Mean increase from pretreatment baseline in LDL-C ([1]; 200 mg BID, 6-month treatment): 13.10 mg/dL
Mean increase from pretreatment baseline in triglycerides ([1]; 200 mg BID, 6-month treatment): 11.08 mg/dL
Patients who discontinued therapy due to adverse reactions ([1]; 200 mg BID): 9.6%
Percent change from baseline of averaged daily opioid pills (FIG. A-5) ([1]; 200 mg BID, compared with placebo): significant decrease from baseline in the percent change of averaged daily opioid pills at Months 3 through 6
Patients with Z-score below the normal lower bound of −2.0 ([1]; 200 mg BID): less than 1%
Estradiol level (suppression to) ([1]; 200 mg BID, nearly full suppression): approximately 12 pg/mL
% Subjects with lumbar spine Z-score ≤−1.5 ([1]; 200 mg BID, on treatment Month 6, N 365): 4.1%
Mean Percent Change from baseline in lumbar spine bone mineral density ([1]; 200 mg BID, on treatment Month 6, N 365, 95% CI −2.81, −2.28): −2.54%
% Subjects with lumbar spine Z-score ≤−1.5 ([1]; 200 mg BID, on treatment Month 12, N 217): 5.1%
Mean Percent Change from baseline in lumbar spine bone mineral density ([1]; 200 mg BID, on treatment Month 12, N 217, 95% CI −4.19, −3.32): −3.76%
Suicidal ideation, % ([1]; 200 mg Twice Daily (N = 477)): (0.2) %
Depressed Mood, depression, depressive symptoms and or tearfulness, % ([1]; 200 mg Twice Daily (N = 477), placebo 2.3): (6.1) %
Mood altered, mood swings, % ([1]; 200 mg Twice Daily (N = 477), placebo 3.4): (5.2) %
Mean Intensity score (1 = spotting to 4 = heavy) ([1]; 200 mg Twice Daily, Month 3, baseline 2.5, placebo 2.6 to 2.4): 2.0
Mean bleeding/spotting days in prior 28 days ([1]; 200 mg Twice Daily, Month 3, baseline 5.7, placebo 5.4 to 4.6): 0.8 days
Patients with asymptomatic elevations of serum ALT to at least 3-times the upper limit of the reference range ([1]; 200 mg twice daily, 5/443): 1.1%
Incidence of amenorrhea (no bleeding or spotting in a 56-day interval) ([1]; 200 mg twice daily, first six months of treatment, placebo less than 1%): 13-52%
Incidence of amenorrhea (no bleeding or spotting in a 56-day interval) ([1]; 200 mg twice daily, second 6 months of treatment): 46-57%
Percentage of days in which rescue opioid medication was taken ([1]; 150 QD and 200 BID, pooled analysis, compared with placebo): significant reduction in the percentage of days in which rescue opioid medication was taken
Mean decreases from Baseline in dysmenorrhea scores ([1]; both treatment groups (150 mg QD, 200 mg BID)): statistically significantly greater than placebo beginning at Month 1 and persisted through Month 6
BMD after stopping treatment ([1]; both treatment groups, lumbar spine, total hip and femoral neck, post-treatment months 6 and 12): progressive recovery of BMD
Durability of improvement in extension studies EM-III and EM-IV ([1]; patients maintained on their dose): durability of improvement in dysmenorrhea, NMPP and dyspareunia was demonstrated for a total of 12 months
PROMIS Fatigue SF-6a T-Score ([2]; 200 mg, Month 1): statistically significant reduction in fatigue
PROMIS Fatigue SF-6a T-Score ([2]; both doses (150 mg QD, 200 mg BID), Months 3 and 6): Statistically significant reductions relative to placebo
